Experimental data: patent US20100022531A1, “NOVEL COMPOUNDS AS P2X7 MODULATORS AND USES THEREOF” (RENOVIS, INC., priority 2005, published 2010)
Read-outs that look alike come from different tables or passages of the source.

Biological target: T1, P2X7 receptor (Homo sapiens, UniProt Q99572)
T1 construct: host or cells: THP-1 cells differentiated with LPS and IFN-γ
T1 sequence (Q99572 1-595): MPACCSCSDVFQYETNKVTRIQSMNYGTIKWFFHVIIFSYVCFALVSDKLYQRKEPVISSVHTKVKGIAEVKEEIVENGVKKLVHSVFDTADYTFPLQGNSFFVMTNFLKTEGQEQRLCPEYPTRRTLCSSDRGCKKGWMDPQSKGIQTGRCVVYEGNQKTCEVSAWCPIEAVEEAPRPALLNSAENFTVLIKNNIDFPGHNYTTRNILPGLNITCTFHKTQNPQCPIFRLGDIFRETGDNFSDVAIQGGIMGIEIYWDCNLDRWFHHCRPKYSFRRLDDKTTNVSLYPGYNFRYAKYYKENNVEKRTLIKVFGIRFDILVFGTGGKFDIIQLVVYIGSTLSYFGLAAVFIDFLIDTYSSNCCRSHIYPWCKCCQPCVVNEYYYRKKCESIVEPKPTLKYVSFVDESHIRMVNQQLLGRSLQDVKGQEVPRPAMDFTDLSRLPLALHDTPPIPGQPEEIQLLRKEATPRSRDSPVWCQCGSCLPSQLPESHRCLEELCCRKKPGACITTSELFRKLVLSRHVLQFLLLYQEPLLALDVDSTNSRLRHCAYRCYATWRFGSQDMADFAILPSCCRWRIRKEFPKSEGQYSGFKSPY
Assay: Alternate method for IL-1β release assay (differentiated THP-1 cells, BzATP-stimulated, ELISA)
Type: cell-based
Settings: for inhibition at 0.1 µM: read-out: IL-1β % inhib @ 0.1 μM; for inhibition at 0.03 µM: at 0.03 μM (asterisk symbols), read-out: IL-1β % inhib @ 0.3 μM or @ 0.03 μM
Protocol: Alternate Method for IL-1β Release Assay
THP-1 cells (ATCC Cat #285-IF-100) are plated in 96 well plates at a concentration of 200,000 cells per well and allowed to differentiate in RPMI-1640 media (ATCC Cat #30-2001) containing 10% FBS, 100 IU/mL penicillin, 100 ug/mL streptomycin, 100 ng/mL LPS and 100 ng/mL IFN-γ for 16 hours. Following differentiation, the cells are treated for an additional 2 hours in RPMI-1640 media containing 100 IU/mL penicillin, 100 ug/mL streptomycin and fresh LPS at 100 ng/mL. The cells are then pretreated for 30 minutes with the compound of interest at the appropriate concentration in RPMI media containing 100 IU/mL penicillin, 100 ug/mL streptomycin. Following the pretreatment 2′,3′-O-(4-benzoylbenzoyl)-adenosine 5′-triphosphate (Sigma Aldrich Cat# B6396) is added to a final concentration of 250 uM and the cells incubated for an additional 45 minutes. 30 uL of cell supernatant is then collected and IL-1β levels determined via ELISA (R&D systems Cat. # HSLB50) according to manufacturers recommendations using the Tecan Safire plate reader. Background adjusted IL-1β levels of drug treated and non-treated cells are used to calculate the percent inhibition.

[1] = P2X7, 0.3 μM compound (asterisk symbols), read-out: IL-1β % inhib @ 0.3 μM
[2] = P2X7, 0.1 μM compound (symbols + to ++++)
[3] = P2X7, 0.3 μM compound (symbols * to ****), read-out: IL-1β % inhib @ 0.3 μM
[4] = P2X7, read-out: IL-1β % inhib @ 0.3 μM

SMILES	inhibition at 0.3 µM [1]	further results
COc1ccc(OC)c(S(=O)(=O)N2CCc3c(ncnc3NCC34CC5CC(CC(C5)C3)C4)C2)c1 [Compound 72]	25 to 50%	
FC12CC3CC(C1)CC(CNc1ncnc4c1CCN(Cc1ccccc1)C4)(C3)C2 [Compound 252]		inhibition at 0.1 µM [2]: > 75%
O=C(OCc1ccoc1)N1CCc2c(ncnc2NCC23CC4CC(CC(C4)C2)C3)C1 [Compound 340]		inhibition at 0.1 µM [2]: 50 to 75%
CC(C)S(=O)(=O)N1CCc2c(ncnc2NCC23CC4CC(CC(C4)C2)C3)C1 [Compound 70]	50 to 75%	
c1cc(CN2CCc3c(ncnc3NCC34CC5CC(CC(C5)C3)C4)C2)c2c(c1)OCO2 [Compound 207]		inhibition at 0.1 µM [2]: > 75%
COc1ccc(CN2CCc3c(ncnc3NCC34CC5CC(CC(C5)C3)C4)C2)cc1 [Compound 173]	0 to 25%	
CC(C)N(C)CC(=O)N1CCc2c(ncnc2NCC2C3CC4CC(C3)CC2C4)C1 (stereo not drawn) [Compound 313]		inhibition at 0.3 µM [3]: 0 to 25%
Brc1ccc(CN2CCc3c(ncnc3NCC34CC5CC(CC(C5)C3)C4)C2)cc1 [Compound 208]		inhibition at 0.3 µM [3]: > 75%
CCCC(C)CN1CCc2c(ncnc2NCC23CC4CC(CC(C4)C2)C3)C1 (stereo not drawn) [Compound 193]	> 75%	
O=S(=O)(c1ccccc1)N1CCc2c(ncnc2NCC23CC4CC(CC(C4)C2)C3)C1 [Compound 4, Adamantan-1-ylmethyl-(7-benzenesulfonyl-5,6,7,8-tetrahydro-pyrido[3,4-d]pyrimidin-4-yl)-amine]		inhibition at 0.3 µM [4]: 50 to 75%
CC(C)(C)OC(=O)NCC(=O)N1CCc2c(ncnc2NCC(O)C23CC4CC(CC(C4)C2)C3)C1 (stereo not drawn) [Compound 707, {2-[4-(2-Adamantan-1-yl-2-hydroxy-ethylamino)-5,8-dihydro-6H-pyrido[3,4d]pyrimidin-7-yl]-2-oxo-ethyl}-carbamic acid tert-butyl ester]		inhibition at 0.03 µM (P2X7): 50 to 75%
N#Cc1cccc(C(=O)N2CCc3c(ncnc3NCC34CC5CC(CC(F)(C5)C3)C4)C2)c1 [Compound 333]		inhibition at 0.1 µM [2]: 25 to 50%
Clc1ccc(CN2CCc3c(ncnc3NCC34CC5CC(CC(C5)C3)C4)C2)cc1 [Compound 212]		inhibition at 0.3 µM [3]: > 75%
Clc1cc2c(cc1CN1CCc3c(ncnc3NCC34CC5CC(CC(C5)C3)C4)C1)OCO2 [Compound 210]		inhibition at 0.3 µM [3]: 0 to 25%
O=C(OCC1CCCO1)N1CCc2c(ncnc2NCC23CC4CC(CC(C4)C2)C3)C1 (stereo not drawn) [Compound 341]		inhibition at 0.1 µM [2]: 50 to 75%
O=C(c1cnn(-c2ccccc2)c1C(F)(F)F)N1CCc2c(ncnc2NCC23CC4CC(CC(C4)C2)C3)C1 [Compound 255]		inhibition at 0.3 µM [3]: > 75%
CN(CC(=O)N1CCc2c(ncnc2NCC2C3CC4CC(C3)CC2C4)C1)Cc1ccc(C(F)(F)F)cc1 (stereo not drawn) [Compound 317]		inhibition at 0.3 µM [3]: 25 to 50%
Cc1ccccc1S(=O)(=O)N1CCc2c(ncnc2NCC23CC4CC(CC(C4)C2)C3)C1 [Compound 56]	25 to 50%	
CCC(CC)CN1CCc2c(ncnc2NCC23CC4CC(CC(C4)C2)C3)C1 [Compound 192]	> 75%	

SMILES	inhibition at 0.3 µM [1]	further results
O=C(OCc1c(F)cccc1F)N1CCc2c(ncnc2NCC23CC4CC(CC(C4)C2)C3)C1 [Compound 338]		inhibition at 0.1 µM [2]: > 75%
CCCCN1CCc2c(ncnc2NCC23CC4CC(CC(C4)C2)C3)C1 [Compound 189]	0 to 25%	
O=C(O[C@@H]1CCOC1)N1CCc2c(ncnc2NCC23CC4CC(CC(C4)C2)C3)C1 [Compound 250, 4-[(Adamantan-1-ylmethyl)-amino]-5,8-dihydro-6H-pyrido[3,4-d]pyrimidine-7-carboxylic acid (R)-(tetrahydro-furan-3-yl)ester]		inhibition at 0.1 µM [2]: 0 to 25%
O=S(=O)(c1ccc(Oc2ccccn2)cc1)N1CCc2c(ncnc2NCC23CC4CC(CC(C4)C2)C3)C1 [Compound 29]	> 75%	
O=C(OCc1ccccc1F)N1CCc2c(ncnc2NCC23CC4CC(CC(C4)C2)C3)C1 [Compound 337]		inhibition at 0.1 µM [2]: 0 to 25%
C[C@@H](NC(=O)OC(C)(C)C)C(=O)N1CCc2c(ncnc2NCC(O)C23CC4CC(CC(C4)C2)C3)C1 (stereo partly drawn) [Compound 710, {(R)-2-[4-(2-Adamantan-1-yl-2-hydroxy-ethylamino)-5,8-dihydro-6H-pyrido[3,4-d]pyrimidin-7-yl]-1-methyl-2-oxo-ethyl}-carbamic acid tert-butyl ester]		inhibition at 0.03 µM (P2X7): 0 to 25%
N#Cc1ccccc1S(=O)(=O)N1CCc2c(ncnc2NCC23CC4CC(CC(C4)C2)C3)C1 [Compound 74]	25 to 50%	
O=S(=O)(c1ccc(-n2cccn2)cc1)N1CCc2c(ncnc2NCC23CC4CC(CC(C4)C2)C3)C1 [Compound 52]	0 to 25%	
COc1ccc(S(=O)(=O)N2CCc3c(ncnc3NCC34CC5CC(CC(C5)C3)C4)C2)c(OC)c1 [Compound 53]	50 to 75%	
O=C(CN1CCN(Cc2ccccc2)CC1)N1CCc2c(ncnc2NCC2C3CC4CC(C3)CC2C4)C1 (stereo not drawn) [Compound 271]		inhibition at 0.3 µM [3]: 0 to 25%
COc1ccc(S(=O)(=O)N2CCc3c(ncnc3NCC34CC5CC(CC(C5)C3)C4)C2)cc1 [Compound 10]	25 to 50%	
O=S(=O)(c1ccc(OC(F)F)cc1)N1CCc2c(ncnc2NCC23CC4CC(CC(C4)C2)C3)C1 [Compound 46]	25 to 50%	
CC12CC3(C)CC(C)(C1)CC(CNc1ncnc4c1CCN(Cc1ccccc1)C4)(C2)C3 [Compound 247]		inhibition at 0.3 µM [3]: 25 to 50%
CCc1ccc(CN(C)CC(=O)N2CCc3c(ncnc3NCC3C4CC5CC(C4)CC3C5)C2)cc1 (stereo not drawn) [Compound 309]		inhibition at 0.3 µM [3]: 25 to 50%
Cc1cc(COC(=O)N2CCc3c(ncnc3NCC34CC5CC(CC(C5)C3)C4)C2)nn1C [Compound 347]		inhibition at 0.1 µM [2]: 50 to 75%
O=C(CN1CCCCC1)N1CCc2c(ncnc2NCC23CC4CC(CC(C4)C2)C3)C1 [Compound 266]		inhibition at 0.3 µM [4]: 0 to 25%
Fc1ccc(CN2CCc3c(ncnc3NCC34CC5CC(CC(F)(C5)C3)C4)C2)c(F)c1 [Compound 323]		inhibition at 0.1 µM [2]: 50 to 75%
COc1cc(CN2CCc3c(ncnc3NCC34CC5CC(CC(C5)C3)C4)C2)cc(Br)c1OC [Compound 205]		inhibition at 0.3 µM [3]: 0 to 25%
c1ccc(CN2CCc3c(ncnc3NCC34CC5CC(CC(C5)C3)C4)C2)cc1 [Compound 1, Adamantan-1-ylmethyl-(7-benzyl-5,6,7,8-tetrahydro-pyrido[3,4-d]pyrimidin-4-yl)-amine]		inhibition at 0.1 µM (P2X7, 0.1 μM compound (plus symbols)): > 75%

More lines, main results first:

inhibition at 0.3 µM [1]	SMILES	further results
25 to 50%	O=S(=O)(c1cc(F)ccc1F)N1CCc2c(ncnc2NCC23CC4CC(CC(C4)C2)C3)C1 [Compound 60]	
25 to 50%	O=S(=O)(c1cccc(OC(F)(F)F)c1)N1CCc2c(ncnc2NCC23CC4CC(CC(C4)C2)C3)C1 [Compound 20]	
0 to 25%	Cc1ccc(F)cc1S(=O)(=O)N1CCc2c(ncnc2NCC23CC4CC(CC(C4)C2)C3)C1 [Compound 69]	
25 to 50%	Cc1ccccc1C(=O)N1CCc2c(ncnc2NCC23CC4CC(CC(C4)C2)C3)C1 [Compound 133]	
0 to 25%	O=S(=O)(c1ccc(F)cc1Cl)N1CCc2c(ncnc2NCC23CC4CC(CC(C4)C2)C3)C1 [Compound 68]	
25 to 50%	Cc1cc(C(=O)N2CCc3c(ncnc3NCC34CC5CC(CC(C5)C3)C4)C2)n(C(C)(C)C)n1 [Compound 151]	
0 to 25%	O=C(c1ccc(Cl)nc1)N1CCc2c(ncnc2NCC23CC4CC(CC(C4)C2)C3)C1 [Compound 136]	
> 75%	O=C(C1COc2ccccc2C1)N1CCc2c(ncnc2NCC23CC4CC(CC(C4)C2)C3)C1 (stereo not drawn) [Compound 160]	
25 to 50%	O=C(c1ccc2ccccc2n1)N1CCc2c(ncnc2NCC23CC4CC(CC(C4)C2)C3)C1 [Compound 154]	
0 to 25%	O=C(c1cc(F)cc(C(F)(F)F)c1)N1CCc2c(ncnc2NCC23CC4CC(CC(C4)C2)C3)C1 [Compound 122]	
0 to 25%	O=S(=O)(Cc1cc(C(F)(F)F)cc(C(F)(F)F)c1)N1CCc2c(ncnc2NCC23CC4CC(CC(C4)C2)C3)C1 [Compound 38]	
> 75%	O=C(c1c(F)cccc1Cl)N1CCc2c(ncnc2NCC23CC4CC(CC(C4)C2)C3)C1 [Compound 127]	
> 75%	COc1ccc(C(=O)N2CCc3c(ncnc3NCC34CC5CC(CC(C5)C3)C4)C2)cc1OC [Compound 159]	
